{
  "source": "patent US20250208137A1",
  "about": "“COMPOUNDS FOR THE DETECTION AND INHIBITION OF COAGULATION PROTEASES” (Politechnika Wroclawska, priority 2022, published 2025)",
  "type_in_all_cases": "biochemical",
  "key": {"fXa": {"target": "fXa (Homo sapiens, UniProt P00742)", "sequence (P00742 235-488 limits assumed)": "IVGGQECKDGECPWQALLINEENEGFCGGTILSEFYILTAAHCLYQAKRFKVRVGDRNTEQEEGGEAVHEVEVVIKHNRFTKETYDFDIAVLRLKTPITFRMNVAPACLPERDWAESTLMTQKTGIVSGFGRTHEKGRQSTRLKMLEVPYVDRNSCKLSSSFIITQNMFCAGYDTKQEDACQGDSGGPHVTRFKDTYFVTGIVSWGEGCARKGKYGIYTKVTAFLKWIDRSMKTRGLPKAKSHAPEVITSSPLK", "sequence (P00742 41-179 partner limits assumed)": "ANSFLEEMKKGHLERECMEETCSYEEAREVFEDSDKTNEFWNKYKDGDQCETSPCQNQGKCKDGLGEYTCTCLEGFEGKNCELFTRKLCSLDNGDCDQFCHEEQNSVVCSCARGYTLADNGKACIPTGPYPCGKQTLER", "assay": "Inhibition kinetics (kobs/I) under pseudo first-order conditions, fXa", "details": "10 nM fXa, substrate 50 μM SMII18, pH 7.4, 37° C.", "description": "(§1) The Kobs/l parameters towards APC, fIIa, fXa, and fXIa were measured under pseudo first-order conditions (Table 1). The assay buffer contained 20 mM Tris-base, 150 mM NaCl, 5 mM CaCl2), pH 7.4. Each ABP or inhibitor was serially diluted until the seventh well to obtain the concentrations ranging from 308 nM to 100 µM, depending on the ABP/inhibitor used. The assay conditions were as follows: 20 μL of selected substrate (154 μM SMA5 for APC, 100 μM SMA4 for fIIa, 50 μM SMII18 for fXa, and 100 μM SMX1 for fXIa) was added into the wells containing 20 μL of seven different ABP/inhibitor concentrations. Next, 60 μL of APC, fIIa, fXa, or fXIa (at the concentration of 10 nM) preincubated for 15 min at 37° C. was added, and the fluorescence increase over time was measured (λex=355 nm, λem=460 nm) for 30 min. The Kobs/l values were calculated using GraphPad Prism and Microsoft Excel software as described previously."}, "APC [1]": {"target": "T1, APC (Homo sapiens, UniProt P04070)", "T1 sequence (P04070 212-461 limits assumed)": "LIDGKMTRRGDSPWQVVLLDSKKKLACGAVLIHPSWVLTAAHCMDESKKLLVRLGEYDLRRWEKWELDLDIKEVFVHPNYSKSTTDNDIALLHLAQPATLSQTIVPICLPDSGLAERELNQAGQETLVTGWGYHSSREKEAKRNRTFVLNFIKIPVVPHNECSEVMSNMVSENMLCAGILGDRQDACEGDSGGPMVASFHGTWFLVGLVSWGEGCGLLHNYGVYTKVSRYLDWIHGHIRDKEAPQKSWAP", "T1 sequence (P04070 43-197 partner limits assumed)": "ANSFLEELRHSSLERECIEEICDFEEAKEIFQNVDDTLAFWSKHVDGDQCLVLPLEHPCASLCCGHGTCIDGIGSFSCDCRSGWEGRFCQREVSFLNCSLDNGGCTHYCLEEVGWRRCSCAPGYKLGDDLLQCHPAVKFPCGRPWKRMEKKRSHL", "assay": "Kinetic parameters (kcat/KM) of fluorogenic substrates, APC", "details": "APC versus other coagulation factors", "description": "The Kcat/KM parameters towards APC, thrombin and fXa were measured using the procedure described in Modrzycka et al. Chemical Science, 2022, 13, 6813-6829."}, "APC [2]": {"target": "T1, APC", "assay": "Screen of APC tetrapeptide fluorogenic substrates", "details": "for activity and selectivity for APC in the substrate screen: out of substrates SMA1-SMA26", "description": "(§2) To minimize potential cross reactivity, a detailed kinetic analysis of the four APC-selective substrates was performed against the other proteases."}, "[3]": {"test_system": "other coagulation factors", "assay": "Substrate hydrolysis by other coagulation factors", "description": "as §2"}, "APC [4]": {"target": "T1, APC", "assay": "Inhibition kinetics (kobs/I) under pseudo first-order conditions, APC", "details": "10 nM APC, substrate 154 μM SMA5, pH 7.4, 37° C.", "description": "as §1"}, "fXIa": {"target": "fXIa (Homo sapiens, UniProt P03951)", "sequence (P03951 388-625 limits assumed)": "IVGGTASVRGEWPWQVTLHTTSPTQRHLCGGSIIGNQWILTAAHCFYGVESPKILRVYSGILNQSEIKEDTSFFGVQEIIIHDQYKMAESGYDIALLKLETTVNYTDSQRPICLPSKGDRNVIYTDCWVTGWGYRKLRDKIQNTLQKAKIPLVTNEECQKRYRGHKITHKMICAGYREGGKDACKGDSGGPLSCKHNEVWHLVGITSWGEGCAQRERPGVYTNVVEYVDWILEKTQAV", "sequence (P03951 19-387 partner limits assumed)": "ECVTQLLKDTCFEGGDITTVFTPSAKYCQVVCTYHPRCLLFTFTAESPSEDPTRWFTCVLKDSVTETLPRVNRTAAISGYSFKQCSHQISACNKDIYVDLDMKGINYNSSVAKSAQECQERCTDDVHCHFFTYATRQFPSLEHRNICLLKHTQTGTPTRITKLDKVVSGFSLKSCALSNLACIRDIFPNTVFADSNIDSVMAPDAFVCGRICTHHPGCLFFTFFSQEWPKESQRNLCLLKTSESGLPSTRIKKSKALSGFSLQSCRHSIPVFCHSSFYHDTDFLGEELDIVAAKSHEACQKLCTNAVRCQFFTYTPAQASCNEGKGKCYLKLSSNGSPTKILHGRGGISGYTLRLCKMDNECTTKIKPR", "assay": "Inhibition kinetics (kobs/I) under pseudo first-order conditions, fXIa", "details": "10 nM fXIa, substrate 100 μM SMX1, pH 7.4, 37° C.", "description": "as §1"}, "fIIa": {"target": "fIIa (Homo sapiens, UniProt P00734)", "assay": "Inhibition kinetics (kobs/I) under pseudo first-order conditions, fIIa", "details": "10 nM fIIa, substrate 100 μM SMA4, pH 7.4, 37° C.", "description": "as §1"}},
  "note": "Starred links: 1 amine or outer side, 2 acyl side, 3 side chain; linkers in the order of their positions; H or OH if unused. Non-standard residues stand in square brackets, D forms with d. Primed or numbered codes have the meaning given here. *: point of attachment. Tyr(2,6Cl2-Z) = 2,6-dichlorobenzyl-L-tyrosine, O=C([C@H](Cc1ccc(OCc2c(Cl)cccc2Cl)cc1)N[*:1])[*:2]; Glu(Bzl) = L-glutamic acid benzyl ester, O=C(CC[C@H](N[*:1])C(=O)[*:2])OCc1ccccc1; diphenyl phosphonate = C-terminal diphenyl phosphonate (Arg^P(OPh)2); BODIPY(FL) = CC1=CC(C)=[N+]2C1=Cc1ccc(CCC(=O)*)n1[B-]2(F)F; 1Nal = N[C@@H](Cc1cccc2ccccc12)C(=O)O; ACC = NC(=O)Cc1cc(=O)oc2cc(N*)ccc12; Igl = N[C@H](C(=O)O)C1Cc2ccccc2C1; hArg = N=C(N)NCCCC[C@H](N)C(=O)O; Agp = N=C(N)NC[C@H](N)C(=O)O; PEG4′ = PEG linker, 4 units; Nle = CCCC[C@H](N)C(=O)O; Dab = NCC[C@H](N)C(=O)O; Cbz = O=C(OCc1ccccc1)*; Cy3 = Cy3 fluorophore; Ahx = NCCCCCC(=O)O",
  "data": [
    {"substance": "Ac-DPro-hArg-1-Nal-Arg^P(OPh)2 (Ac-[dP][hArg][1Nal]R-{diphenyl phosphonate}) [I-SMX15]", "values": [
      {"measurement": "kobs/I fXa", "setting": "fXa", "value": "1,200 ± 100 M^−1s^−1"}
    ]},
    {"substance": "Ac-K[Dab](Cbz)KR-{ACC} [SMA 17]", "values": [
      {"measurement": "Kcat/KM selectivity ratio", "setting": "APC [1]", "value": "very high"},
      {"measurement": "activity and selectivity for APC in the substrate screen", "setting": "APC [2]", "value": "showed the most activity and selectivity for APC"},
      {"measurement": "hydrolysis when tested with other coagulation factors", "setting": "[3]", "value": "almost nondetectable"}
    ]},
    {"substance": "Ac-K[Dab](Cbz)[Igl]R-{ACC} [SMA 5]", "values": [
      {"measurement": "activity and selectivity for APC in the substrate screen", "setting": "APC [2]", "value": "showed the most activity and selectivity for APC"},
      {"measurement": "cleavage efficiency compared to the best natural substrate (SMA54)", "setting": "APC [2]; relative to SMA54", "value": "approximately 50 fold"}
    ]},
    {"substance": "Ac-Lys-Agp-Igl-Arg-ACC (Ac-K[Agp][Igl]R-{ACC}; SMILES CC(=O)N[C@@H](CCCCN)C(=O)N[C@@H](CNC(=N)N)C(=O)N[C@H](C(=O)N[C@@H](CCCNC(=N)N)C(=O)Nc1ccc2c(CC(N)=O)cc(=O)oc2c1)C1Cc2ccccc2C1) [SMA 6, fluorogenic substrate for APC]", "values": [
      {"measurement": "activity and selectivity for APC in the substrate screen", "setting": "APC [2]", "value": "showed the most activity and selectivity for APC"}
    ]},
    {"substance": "Ac-Lys-Dab(Z)-Lys-Arg^P(OPh)2 [I-SMA17]", "values": [
      {"measurement": "kobs/I APC", "setting": "APC [4]", "value": "1,980 ± 20 M^−1s^−1"}
    ]},
    {"substance": "Ac-Tyr(2,6Cl2-Z)-Nle-Glu(Bzl)-Arg^P(OPh)2 (Ac-[Tyr(2,6Cl2-Z)][Nle][Glu(Bzl)]R-{diphenyl phosphonate}) [I-SMXI5]", "values": [
      {"measurement": "kobs/I fXIa", "setting": "fXIa", "value": "54,700 ± 2,800 M^−1s^−1"}
    ]},
    {"substance": "Ac-hCha-Cys(MeBzl)-Pip-Arg^P(OPh)2 [I-SMII22]", "values": [
      {"measurement": "kobs/I fIIa", "setting": "fIIa", "value": "209,000 ± 13,800 M^−1s^−1"}
    ]},
    {"substance": "Bodipy-PEG(4)-Tyr(2,6Cl2-Z)-Nle-Glu(Bzl)-Arg^P(OPh)2 ({BODIPY(FL)-PEG4′}-[Tyr(2,6Cl2-Z)][Nle][Glu(Bzl)]R-{diphenyl phosphonate}) [P-SMXI52]", "values": [
      {"measurement": "kobs/I fXIa", "setting": "fXIa", "value": "3,120 ± 100 M^−1s^−1"}
    ]},
    {"substance": "Cy3-6-Ahx-DPro-hArg-1-Nal-Arg^P(OPh)2 ({Cy3-Ahx}-[dP][hArg][1Nal]R-{diphenyl phosphonate}) [P-SMX152]", "values": [
      {"measurement": "kobs/I fXa", "setting": "fXa", "value": "1,800 ± 100 M^−1s^−1"}
    ]},
    {"substance": "Cy5-6-Ahx-Lys-Dab(Z)-Lys-Arg^P(OPh)2 [P-SMA172]", "values": [
      {"measurement": "kobs/I APC", "setting": "APC [4]", "value": "2,250 ± 170 M^−1s^−1"}
    ]},
    {"substance": "Cy7-6-Ahx-hCha-Cys(MeBzl)-Pip-Arg^P(OPh)2 [P-SMII222]", "values": [
      {"measurement": "kobs/I fIIa", "setting": "fIIa", "value": "3,500 ± 300 M^−1s^−1"}
    ]}
  ]
}
